Reference: patent US20220144826A1, “Heteroaromatic and Heterobicyclic Aromatic Derivatives for the Treatment of Ferroptosis-Related Disorders” (COLLABORATIVE MEDICINAL DEVELOPMENT, LLC, priority 2019, published 2022)

System: N27 rat dopaminergic neural cells
Assay: MTT assay in N27 rat dopaminergic neural cells: inhibition of RSL3-induced cell death (ferroptosis)
Format: cell-based
Details: Rattus norvegicus, N27, 24 h, ferroptosis induced by 0.5 μM RSL3, 24 hours, viability by MTT
Protocol: MTT Assay in N27 Rat Dopaminergic Neural Cells
N27 rat dopaminergic neural cells (Millipore, SCC048) were cultured in RPMI-1640 media (Wisent, 350-000) supplemented with 1×GlutaMAX (Gibco, 35050-061), 10% FBS (embryonic stem cell qualified; Wisent, 920-040), and 1× Penicillin-Streptomycin (Wisent, 450-201). Cells were grown in humidified tissue culture incubator at 37° C. with 5% CO2, for up to 10 passages. To evaluate the ability of test compounds to inhibit RSL3-induced cell death, N27 cells were seeded in clear 96-well tissue culture plates (Sarstedt, 83.3924) at a density of 15,000 cells/well. On the next day, the medium was changed to fresh complete RPMI-1640. Eight-point dilution series of test compounds were added to the cells. Then, ferroptosis was induced by addition of 0.5 μM RSL3 (vehicle-treated cells served as control). Ferrostatin-1 (Fer-1) was included in each assay as control inhibitor of ferroptosis. Plates were incubated for 24 hours at 37° C. in a tissue culture incubator, then cell viability was determined by MTT assay. Briefly, Thiazolyl Blue Tetrazolium Bromide [3-(4,5-dimethylthiazol-2-yl)-2,5-diphenyltetrazolium bromide or “MTT” ] (Sigma) stock solution (5 mg/mL in PBS, sterilized by filtration) was diluted 1:1 with complete growth medium, and added on the cells to a final concentration of 0.5 mg/mL. Cells were incubated with MTT for 4 hours at 37° C., protected from light, in a humidified, 5% CO2 atmosphere. Medium was then completely removed from the wells by gentle aspiration and converted MTT formazan crystals were dissolved in 150 μL of DMSO. Absorbance of converted dye was measured at 595 nm with background subtraction at 690 nm using the BioTek Cytation5 Microplate Reader. Blank reading (absorbance from wells containing media and vehicle only, no cells) was removed from all sample wells. Viability was calculated as a percentage of control cells (vehicle-treated cells were set as 100% viability). Dose-response curves were drawn and IC50 values were calculated using GraphPad Prism software, version 7.

SMILES | IC50 [nM]
c1cncc(-c2ccc(NC3COC3)c(NC3CCCC3)n2)c1 [Compound H-75, N^2-cyclopentyl-N^3-(oxetan-3-yl)-6-(3-pyridyl)pyridine-2,3-diamine] | 44
CCCCC(=O)c1cc2c(c(NC3CCCC3)c1)OCCC2 [Compound B-035, 1-[8-(cyclopentylamino)-3,4-dihydro-2H-1-benzopyran-6-yl]pentan-1-one] | > 3000
CCC(C)Nc1ccc(-c2ccc(C)cc2)nc1NC1CCCC1 (centres unmarked) [Compound H-61, N^2-cyclopentyl-6-(p-tolyl)-N^3-sec-butyl-pyridine-2,3-diamine] | 7
CC1(Nc2nc(-c3cccnc3)ccc2NC2CCOC2)CCOC1 [Compound L-42, N^2-(3-methyltetrahydrofuran-3-yl)-6-(3-pyridyl)-N^3-tetrahydrofuran-3-yl-pyridine-2,3-diamine] | 285
Cc1ccc(-c2ccc(NC(C)(C)C)c(NC(C)(C)C)n2)cc1 [Compound L-03, N^2,N^3-di-tert-butyl-6-(p-tolyl)pyridine-2,3-diamine] | 14
CCC(C)Nc1ccc(-c2ccncc2)nc1NC(C)(C)C (centres unmarked) [Compound P-22] | 1
CCC/C=C/c1nc(NC2CCCC2)c2c(n1)SCC(=O)N2 [Compound B-600, 4-(cyclopentylamino)-2-[(1E)-pent-1-en-1-yl]-5H,6H,7H-pyrimido[4,5-b][1,4]thiazin-6-one] | ≥ 3000
CCCC(=O)c1ccc(NC(C)CC)c(NC2CCCC2)n1 [Compound L-34, 1-[6-(cyclopentylamino)-5-(sec-butylamino)-2-pyridyl]butan-1-one] | 21
CC1(Nc2nc(-c3ccc(F)cc3)ccc2NC2CCOC2)CCOC1 (centres unmarked) [Compound M-23, 6-(4-fluorophenyl)-N^2-(3-methyltetrahydrofuran-3-yl)-N^3-tetrahydrofuran-3-yl-pyridine-2,3-diamine] | 3 to 6
CCCCC(=O)c1cc2c(c(-c3ccncc3)c1)NCCC2 [Compound Q-950, 1-[8-(4-pyridyl)-1,2,3,4-tetrahydroquinolin-6-yl]pentan-1-one] | > 3000
c1ncc(-c2ccc(NC3COC3)c(NC3CCCC3)n2)cn1 [Compound H-84, N^2-cyclopentyl-N^3-(oxetan-3-yl)-6-pyrimidin-5-yl-pyridine-2,3-diamine] | 32
c1nc2c(c(NC3CCCC3)n1)NCCC2 [Compound C-84, N-cyclopentyl-5,6,7,8-tetrahydropyrido[3,2-d]pyrimidin-4-amine] | 646
CCCCC(O)c1cc2c(c(Nc3ccccn3)c1)NCCC2 (centres unmarked) [Compound B-250, 1-[8-(2-pyridylamino)-1,2,3,4-tetrahydroquinolin-6-yl]pentan-1-ol] | 139
CC1(Nc2nc(-c3ccccn3)ccc2NC2CCOC2)CCOC1 [Compound L-23, N^2-(3-methyltetrahydrofuran-3-yl)-6-(2-pyridyl)-N^3-tetrahydrofuran-3-yl-pyridine-2,3-diamine] | 141
CCCCCc1nc(NC2CCCC2)c2c(n1)S(=O)(=O)CCN2 [Compound B-602, N-cyclopentyl-8,8-dioxo-2-pentyl-6,7-dihydro-5H-pyrimido[4,5-b][1,4]thiazin-4-amine] | ≥ 3000
Cc1ccc(-c2nc3c(c(NC4CCCC4)n2)NCCC3)cc1 [Compound A-32, N-cyclopentyl-2-(p-tolyl)-5,6,7,8-tetrahydropyrido[3,2-d]pyrimidin-4-amine] | 6

SMILES | IC50 [nM]
CCCCC(=O)c1cc(N)c2c(c1)CCCN2Cc1ccccc1 [Compound B-133] | 2900
c1cc(-c2nc3c(c(NC4CCCC4)n2)NCCC3)ccn1 [Compound A-34, N-cyclopentyl-2-(4-pyridyl)-5,6,7,8-tetrahydropyrido[3,2-d]pyrimidin-4-amine] | 57
CCC/C=C/c1nc2c(c(NC3CCCC3)n1)NCCC2 [Compound B-388, N-cyclopentyl-2-[(E)-pent-1-enyl]-5,6,7,8-tetrahydropyrido [3,2-d]pyrimidin-4-amine] | 40
CCCCC(O)c1cc2c(c(NC(C)(C)C)n1)NCC(C(F)(F)F)C2 (centres unmarked) [Compound R-812, 1-[8-(tert-butylamino)-3-(trifluoromethyl)-1,2,3,4-tetrahydro-1,7-naphthyridin-6-yl]pentan-1-ol] | 40
CC(C)(C)Nc1ccc(-c2ccncc2)nc1NC1CCCC1 [Compound L-04, N^3-tert-butyl-N^2-cyclopentyl-6-(4-pyridyl)pyridine-2,3-diamine] | 5
CN(C)C(=O)c1ccc(-c2ccc(NC3CCC3)c(NC3(C)CCOC3)n2)cc1 (centres unmarked) [Compound P-53, 4-[5-(cyclobutylamino)-6-[(3-methyltetrahydrofuran-3-yl)amino]-2-pyridyl]-N,N-dimethyl-benzamide] | 24
CCOC(=O)c1cc2c(c(NC3CCCC3)c1)NC(=O)CC2 [Compound B-148] | 1670
CCC(C)Nc1ccc(C(F)(F)F)nc1NC1CCCC1 (centres unmarked) [Compound K-65, N^2-cyclopentyl-N^3-sec-butyl-6-(trifluoromethyl)pyridine-2,3-diamine] | 45
CCCCCc1nc(NC2CCCC2)c2c(n1)SCCN2 [Compound B-601, N-cyclopentyl-2-pentyl-5H,6H,7H-pyrimido[4,5-b][1,4]thiazin-4-amine] | 3
CCCCCc1ccc(NC(C)CC)c(NC2CCCC2)n1 (centres unmarked) [Compound H-72, N^2-cyclopentyl-6-pentyl-N^3-sec-butyl-pyridine-2,3-diamine] | 6
CCCCC(O)c1nc2c(c(NC3CCCC3)n1)NCCC2 (centres unmarked) [Compound C-79, 1-[4-(cyclopentylamino)-5,6,7,8-tetrahydropyrido[3,2-d]pyrimidin-2-yl]pentan-1-ol] | 112
CC1(Nc2nc(-c3ccc(F)cc3)ccc2NC2CCC2)CCOC1 (centres unmarked) [Compound P-54, N^3-cyclobutyl-6-(4-fluorophenyl)-N^2-(3-methyltetrahydrofuran-3-yl)pyridine-2,3-diamine] | 3
CCC(C)Nc1ccc(-c2ccncc2)nc1NC1CCCC1 (centres unmarked) [Compound H-76, N^2-cyclopentyl-6-(4-pyridyl)-N^3-sec-butyl-pyridine-2,3-diamine] | 6
CCOC(=O)c1cc(N)c2c(c1)OCCN2 [Compound I-85] | > 1000
CCCCC(=O)c1cc2c(c(-n3ccnc3)c1)NCCC2 [Compound B-006, 1-(8-imidazol-1-yl-1,2,3,4-tetrahydroquinolin-6-yl)pentan-1-one] | > 3000
C(#Cc1nc2c(c(NC3CCCC3)n1)NCCC2)c1ccccc1 [Compound C-91, N-cyclopentyl-2-(2-phenylethynyl)-5,6,7,8-tetrahydropyrido[3,2-d]pyrimidin-4-amine] | 35
